# Data from article PMC8102418 (iScience, 2021).
# No end group written: not given here.
# Columns and labels:
# [1] = target: SRPK1 (Homo sapiens, UniProt Q96SB4); experiment: In vitro radioactive kinase assay, SRSF1 phosphorylation by SRPK1; type: biochemical; settings: 50 μM [32P]ATP, different inhibitor concentrations
# [2] = tested on: interaction between SRPK1 and SRSF1; experiment: In vitro GST pull-down of GST-SRSF1 with SRPK1ΔNS3; type: binding; settings: 500 nM GST-SRSF1, 500 nM SRPK1, 4°C 3 h, SDS-PAGE, Coomassie Blue
# [3] = tested on: SRPK2; settings: ref Batson et al., 2017; cited from earlier work
# [4] = tested on: CLK1; settings: ref Batson et al., 2017; cited from earlier work
# [5] = target: SRPK1 (SRPK1ΔNS3) (Homo sapiens, UniProt Q96SB4); experiment: Isothermal titration calorimetry; type: binding; settings: SD
compound,measurement,setting,value
GRKKRRQRRRPQSWQDLKDH [control peptide],inhibition of SRSF1 phosphorylation by SRPK1 (in words),[1],did not inhibit
same,inhibition of the binding of GST-SRSF1 and SRPK1ΔNS3 (GST pull-down),[2],did not inhibit
O=C(Nc1cc(C(F)(F)F)ccc1N1CCN(Cc2ccccn2)CC1)c1ccc(-c2ccncc2)o1 [SPHINX31],affinity for SRPK2 lower than that of SRPK1,[3],50 fold
same,affinity for CLK1 lower than that of SRPK1,[4],50 fold
"RERARTR [7-mer, R-E-R-A-R-T-R]",Kd,[5],112 ± 9.9 µM
